In patent publication US20070287738A1, “Substituted Cyanopyridines as protein kinase inhibitors” (priority 2006, published 2007):

Columns and labels:
Type in all cases: biochemical
[1] = molecular target: T1, purified recombinant full length PKC theta (Panvera, P2996) (Homo sapiens, UniProt Q04759); assay: Radioactive kinase assay for inhibition of full length (FL) PKCθ; conditions: full length enzyme; radioactive (ATP γ P33) assay; average value
T1 construct: purified recombinant full length PKC theta (Panvera, P2996); purchased Panvera P2996
T1 sequence (Q04759 whole entry): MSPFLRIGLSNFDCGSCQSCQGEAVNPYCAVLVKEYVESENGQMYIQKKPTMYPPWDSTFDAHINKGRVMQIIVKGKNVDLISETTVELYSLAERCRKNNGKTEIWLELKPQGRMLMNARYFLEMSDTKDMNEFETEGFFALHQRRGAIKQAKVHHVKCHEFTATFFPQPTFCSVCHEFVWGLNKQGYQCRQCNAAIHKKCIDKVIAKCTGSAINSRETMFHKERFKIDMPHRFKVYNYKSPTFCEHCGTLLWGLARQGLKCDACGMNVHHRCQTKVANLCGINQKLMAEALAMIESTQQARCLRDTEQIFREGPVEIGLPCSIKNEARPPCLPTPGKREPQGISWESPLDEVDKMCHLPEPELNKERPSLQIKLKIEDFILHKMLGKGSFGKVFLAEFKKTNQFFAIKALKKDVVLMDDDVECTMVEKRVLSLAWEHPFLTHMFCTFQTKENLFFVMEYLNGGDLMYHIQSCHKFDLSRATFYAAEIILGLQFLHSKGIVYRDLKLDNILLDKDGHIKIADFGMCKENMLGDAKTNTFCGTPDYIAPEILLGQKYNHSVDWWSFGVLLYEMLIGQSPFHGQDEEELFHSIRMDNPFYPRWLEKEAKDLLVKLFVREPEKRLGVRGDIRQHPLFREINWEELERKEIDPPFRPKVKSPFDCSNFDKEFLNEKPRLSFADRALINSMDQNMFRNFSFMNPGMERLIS
Protocol: (§1) This assay is based on the phosphorylation of a biotinylated substrate by a kinase utilizing radiolabeled ATP (ATP γ P33). The substrate was a biotinylated peptide with a sequence of biotin-FARKGSLRQ-C(O)NH2. The enzyme was purified recombinant active kinase domain of full length PKC theta (amino acids 362-706). The assay buffer was composed of 100 mM Hepes, pH7.5, 2 mM MgCl2, 20 mM β-glycerophosphate and 0.008% TritonX 100. A reaction mixture of ATP, ATP γ P33 (PerkinElmer), DTT, and the enzyme was prepared in the assay buffer and added to a 96-well polypropylene plate. The compound (diluted in DMSO in a separate 96-well polypropylene plate) was added to the reaction mixture and incubated at room temperature. Following the incubation, the peptide substrate was added to the reaction mixture to initiate the enzymatic reaction. The reaction was terminated with the addition of a stop solution (100 mM EDTA, 0.2% TritonX100, and 20 mM NaHPO4) and transferred from the assay plate to a washed streptavidin-coated 96-well scintiplate (PerkinElmer). The scintiplate was incubated at room temperature, washed in PBS with 0.1% TritonX 100, and counted in the 1450 Microbeta Trilux (Wallac, Version 2.60). Counts were recorded for each well as corrected counts per minute (CCPM). The counts were considered corrected because they were adjusted according to a P33 normalization protocol, which corrects for efficiency and background differences between the instrument detectors (software version 4.40.01).
A Radioactive Kinase Assay for Inhibition of Full Length (FL) PKCθ Inhibitors
This assay differs from what was described above in that the enzyme used was purified recombinant full length PKC theta (Panvera, P2996).

[2] = molecular target: T2, human PKCθ full length enzyme (Homo sapiens, UniProt Q04759); assay: PKCθ IMAP assay; conditions: full length enzyme 1 nM; ATP 6 μM; peptide 100 nM; FP readout; average value
T2 construct: human PKCθ full length enzyme (Panvera Cat# P2996); purchased Panvera P2996
T2 sequence (Q04759 whole entry): as above
Protocol: The materials used include the following: human PKCθ full length enzyme (Panvera Cat# P2996); substrate peptide: 5FAM-RFARKGSLRQKNV-OH (Molecular Devices, RP7032); ATP (Sigma Cat # A2383); DTT (Pierce, 20291); 5× kinase reaction buffer (Molecular Devices, R7209); 5× binding buffer A (Molecular Devices, R7282), 5× binding buffer B (Molecular Devices, R7209); IMAP Beads (Molecular Devices, R7284); and 384-well plates (Corning Costar, 3710).
The reaction buffer was prepared by diluting the 5× stock reaction buffer and adding DTT to obtain a concentration of 3.0 mM. The binding buffer was prepared by diluting the 5× binding buffer A. A master mix solution was prepared using a 90% dilution of the reaction buffer containing 2× ATP (12 uM) and 2× peptide (200 nm). Compounds were diluted in DMSO to 20× of the maximum concentration for the IC50 measurement. 27 μl of the master mix solution for each IC50 curve was added to the first column in a 384-well plate and 3 μl of 20× compound in DMSO was added to each well. The final concentration of compound was 2× and 10% DMSO. DMSO was added to the rest of the master mix to increase the concentration to 10%. 10 μl of the master mix containing 10% DMSO was added to the rest of the wells on the plate except the 2nd column. 20 μl was transferred from the first column to the 2nd column.
The compounds were serially diluted in 2:1 ratio starting from the 2nd column. A 2× (2 nM) PKCθ solution was made in the reaction buffer. 10 μl of the PKCθ solution was added to every well to achieve these final concentrations: PKCθ—1 nM; ATP—6 μM; peptide—100 nM; DMSO—5%. Samples were incubated for 25 minutes at room temperature. The binding reagent was prepared by diluting the beads in 1× binding buffer to 800:1. 50 μl of the binding reagent was added to every well and incubated for 20 minutes. FP was measured using Envision2100 (PerkinElmer Life Sciences). Wells with no ATPs and wells with no enzymes were used as controls.

[3] = molecular target: T3, purified recombinant active kinase domain of full length PKC theta (amino acids 362-706) (Homo sapiens, UniProt Q04759); assay: Radioactive kinase assay for inhibition of the active kinase domain (KD) of PKCθ; conditions: radioactive (ATP γ P33) assay, average value
T3 construct: active kinase domain of full length PKC theta (amino acids 362-706)
T3 sequence (Q04759 362-706): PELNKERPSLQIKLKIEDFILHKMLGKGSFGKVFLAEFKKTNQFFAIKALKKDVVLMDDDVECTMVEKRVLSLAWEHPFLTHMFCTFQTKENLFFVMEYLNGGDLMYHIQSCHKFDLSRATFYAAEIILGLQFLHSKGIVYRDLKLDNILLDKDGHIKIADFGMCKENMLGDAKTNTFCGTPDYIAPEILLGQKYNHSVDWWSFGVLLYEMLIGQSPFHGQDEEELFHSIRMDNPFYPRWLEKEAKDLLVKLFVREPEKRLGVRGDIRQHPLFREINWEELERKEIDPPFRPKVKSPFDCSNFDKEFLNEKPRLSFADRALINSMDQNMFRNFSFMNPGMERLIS
Protocol: A Radioactive Kinase Assay for Inhibition of the Active Kinase Domain (KD) of PKCθ
as §1

Row | SMILES | IC50 [1] [µM] | IC50 [2] [µM] | IC50 [3] [µM]
1 | COc1cc(Nc2c(C#N)cncc2-c2ccc(OC)c(OC)c2)c(Cl)cc1Cl [Compound 137, 4-[(2,4-dichloro-5-methoxyphenyl)amino]-5-(3,4-dimethoxyphenyl)nicotinonitrile] | 0.16 | 0.18 | 0.19
2 | COc1ccc(-c2cncc(C#N)c2Nc2ccc(Cl)c(Cl)c2)cc1OC [Compound 115, 4-[(3,4-dichlorophenyl)amino]-5-(3,4-dimethoxyphenyl)nicotinonitrile] | 0.38 | – | 4.26
